Assay results taken from PubChem BioAssay AID330 (DTP/NCI, 2004).
Values joined by “and” are separate entries in the source; they are usually repeats but may differ in a detail not shown here. Equal entries are not always repeated. Inconclusive results and toxic doses are left out. The calls were made as follows: active = survival T/C of 150% or more; inactive = T/C below 125% in these data.

Test system: P388 leukemia ip, CD2F1 mice, survival T/C
Assay: NCI In Vivo Anticancer Drug Screen. Data for tumor model P388 Leukemia (intraperitoneal) in CD2F1 (CDF1) mice
Conditions: endpoint: median survival time, higher = longer survival
Summary of the method: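 Mice carrying the transplanted tumor received test compound or vehicle. Survival was recorded in each group, and the value is the treated-group measurement divided by that of the vehicle-treated control group.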

[1] = dose: 12.5 mg/kg/injection, schedule: Q01DX009 (ip), vehicle: saline
[2] = dose: 25.0 mg/kg/injection, schedule: Q01DX009 (ip), vehicle: saline
[3] = dose: 50.0 mg/kg/injection, schedule: Q01DX009 (ip), vehicle: saline with Tween-80
[4] = dose: 100.0 mg/kg/injection, schedule: Q01DX009 (ip), vehicle: saline with Tween-80
[5] = dose: 50.0 mg/kg/injection, schedule: Q01DX009 (ip), vehicle: saline
[6] = dose: 100.0 mg/kg/injection, schedule: Q01DX009 (ip), vehicle: saline
[7] = dose: 200.0 mg/kg/injection, schedule: Q01DX009 (ip), vehicle: saline
[8] = dose: 12.5 mg/kg/injection, schedule: Q04DX003 (ip), vehicle: saline
[9] = dose: 25.0 mg/kg/injection, schedule: Q04DX003 (ip), vehicle: saline
[10] = dose: 50.0 mg/kg/injection, schedule: Q04DX003 (ip), vehicle: saline
[11] = dose: 100.0 mg/kg/injection, schedule: Q04DX003 (ip), vehicle: saline
[12] = dose: 50.0 mg/kg/injection, schedule: Q01DX005 (ip), vehicle: saline with Tween-80
[13] = dose: 100.0 mg/kg/injection, schedule: Q01DX005 (ip), vehicle: saline with Tween-80
[14] = dose: 200.0 mg/kg/injection, schedule: Q01DX005 (ip), vehicle: saline with Tween-80
[15] = dose: 50.0 mg/kg/injection, schedule: Q01DX005 (ip), vehicle: Klucel (hydroxypropylcellulose) (HPC)
[16] = dose: 100.0 mg/kg/injection, schedule: Q01DX005 (ip), vehicle: Klucel (hydroxypropylcellulose) (HPC)
[17] = dose: 200.0 mg/kg/injection, schedule: Q01DX005 (ip), vehicle: Klucel (hydroxypropylcellulose) (HPC)
[18] = dose: 60.0 mg/kg/injection, schedule: Q01DX005 (ip), vehicle: saline with Tween-80
[19] = dose: 120.0 mg/kg/injection, schedule: Q01DX005 (ip), vehicle: saline with Tween-80
[20] = dose: 240.0 mg/kg/injection, schedule: Q01DX005 (ip), vehicle: saline with Tween-80
[21] = dose: 50.0 mg/kg/injection, schedule: Q01DX009 (ip), vehicle: Klucel (hydroxypropylcellulose) (HPC)
[22] = dose: 100.0 mg/kg/injection, schedule: Q01DX009 (ip), vehicle: Klucel (hydroxypropylcellulose) (HPC)
[23] = dose: 200.0 mg/kg/injection, schedule: Q04DX003 (ip), vehicle: saline
[24] = dose: 400.0 mg/kg/injection, schedule: Q04DX003 (ip), vehicle: saline

Measured: T/C

COC(=O)c1[nH]c(=O)c2cccnc2c1O
inactive: dose: 6.25 mg/kg/injection, schedule: Q01DX009 (ip), vehicle: saline 104 % of control | [1] 100 % of control | [2] 92 % of control | [3] 103 % of control | [4] 98 % of control

COP(=O)(Cc1ccccc1O)OC
inactive: [5] 97 % of control | [6] 99 % of control | [7] 96 % of control

CCSC(=O)N1CCN(C(=O)SCC)CC1
inactive: [8] 100 % of control | [9] 100 % of control | [10] 101 % of control | [11] 108 % of control

Cc1cc(C)n(-c2ccccc2-[n+]2noc([O-])c2C)n1
inactive: [12] 97 % of control | [13] 95 % of control | [14] 95 % of control

COC(=O)C1=CN(C(C)=O)C=C(C(=O)OC)C1c1ccccc1
inactive: [12] 102 % of control | [13] 93 % of control | [14] 92 % of control

CSC(=CC(=O)c1ccccc1)SC
inactive: dose: 12.5 mg/kg/injection, schedule: Q01DX009 (ip), vehicle: saline with Tween-80 104 % of control | dose: 25.0 mg/kg/injection, schedule: Q01DX009 (ip), vehicle: saline with Tween-80 105 % of control | [3] 114 % of control | [4] 110 % of control

O=C1SC2(CCCCC2)SC1=O
inactive: dose: 50.0 mg/kg/injection, schedule: Q04DX003 (ip), vehicle: saline with Tween-80 109 % of control | dose: 100.0 mg/kg/injection, schedule: Q04DX003 (ip), vehicle: saline with Tween-80 104 % of control | dose: 200.0 mg/kg/injection, schedule: Q04DX003 (ip), vehicle: saline with Tween-80 104 % of control

COC1=CC(=O)C2CC=CC3CC(=O)OC1C32CO (stereo not given)
inactive: [15] 113 % of control | [16] 103 % of control | [17] 101 % of control

O=C(CNC(=O)c1ccccc1)N/N=C/c1ccco1
inactive: [18] 95 % of control | [19] 101 % of control | [20] 100 % of control

CC(=O)N1CC(O)(c2ccccc2)CSc2ccccc21 (stereo not given)
inactive: [15] 95 % of control | [16] 95 % of control | [17] 96 % of control

CC(C)(C)C(=O)CC(=O)C(C)(C)C.[Cl][Sb]1([Cl])[c]2ccccc2Cc2cccc[c]21
inactive: [3] 100 % of control | [4] 108 % of control | dose: 200.0 mg/kg/injection, schedule: Q01DX009 (ip), vehicle: saline with Tween-80 107 % of control

O=C(/C=C/c1ccccc1)C1CCCCC1
inactive: [21] 107 % of control | [22] 107 % of control | dose: 200.0 mg/kg/injection, schedule: Q01DX009 (ip), vehicle: Klucel (hydroxypropylcellulose) (HPC) 106 % of control

CCN(CC)CCOC(=O)C(OCCOc1ccccc1)(c1ccccc1)c1ccccc1
inactive: [15] 117 % of control | [16] 117 % of control

C1=CC2C(c3cccc4ccccc34)O[C@H]2O1 (stereo not given in full)
inactive: dose: 7.5 mg/kg/injection, schedule: Q01DX005 (ip), vehicle: Klucel (hydroxypropylcellulose) (HPC) 97 % of control | dose: 15.0 mg/kg/injection, schedule: Q01DX005 (ip), vehicle: Klucel (hydroxypropylcellulose) (HPC) 97 % of control | dose: 30.0 mg/kg/injection, schedule: Q01DX005 (ip), vehicle: Klucel (hydroxypropylcellulose) (HPC) 97 % of control

Cc1ccc(C)c(NC(=O)CCC(=O)C(C#N)c2cccc3ccccc23)c1 (stereo not given)
inactive: [18] 104 % of control | [19] 104 % of control | [20] 105 % of control

CC(Cc1nc2ccccc2[nH]1)Cc1nc2ccccc2[nH]1
inactive: dose: 25.0 mg/kg/injection, schedule: Q01DX005 (ip), vehicle: Klucel (hydroxypropylcellulose) (HPC) 100 % of control | [15] 99 % of control | [16] 92 % of control | [17] 91 % of control

CC12CCC(c3sc(N)c(C#N)c31)C2(C)C (stereo not given)
inactive: dose: 12.5 mg/kg/injection, schedule: Q01DX009 (ip), vehicle: Klucel (hydroxypropylcellulose) (HPC) 114 % of control | dose: 25.0 mg/kg/injection, schedule: Q01DX009 (ip), vehicle: Klucel (hydroxypropylcellulose) (HPC) 104 % of control | [21] 104 % of control

O=C1CCC(C(=O)N/N=C\C=N/NC(=O)C2CCC(=O)N2)N1 (stereo not given)
inactive: dose: 5.0 mg/kg/injection, schedule: Q01DX009 (ip), vehicle: saline with Tween-80 101 % of control | dose: 10.0 mg/kg/injection, schedule: Q01DX009 (ip), vehicle: saline with Tween-80 103 % of control | dose: 20.0 mg/kg/injection, schedule: Q01DX009 (ip), vehicle: saline with Tween-80 103 % of control

C=C1C(=O)OC2/C=C(/COC(=O)CCCCC)CCC(OCC)C3=CC(OC3=O)C12 (stereo not given)
inactive: dose: 4.0 mg/kg/injection, schedule: Q01DX009 (ip), vehicle: Klucel (hydroxypropylcellulose) (HPC) 105 % of control | dose: 8.0 mg/kg/injection, schedule: Q01DX009 (ip), vehicle: Klucel (hydroxypropylcellulose) (HPC) 105 % of control | dose: 16.0 mg/kg/injection, schedule: Q01DX009 (ip), vehicle: Klucel (hydroxypropylcellulose) (HPC) 108 % of control | dose: 32.0 mg/kg/injection, schedule: Q01DX009 (ip), vehicle: Klucel (hydroxypropylcellulose) (HPC) 123 % of control

CCCCCCCCCCCCCCC(Cl)C/[N+]([O-])=[N+](/[O-])CC(Cl)CCCCCCCCCCCCCC (stereo not given)
inactive: [11] 92 % of control | [23] 92 % of control | [24] 92 % of control

O=C(NO)C(O)C(O)C(O)CO (stereo not given)
inactive: [5] 101 % of control | [6] 104 % of control | [7] 104 % of control

CN1ON(c2ccc(Cl)c(Cl)c2)OC1=O
inactive: [1] 103 % of control | [2] 105 % of control | [5] 104 % of control and 109 % of control

CC(=O)/C=C(\C)NCCN/C(C)=C/C(C)=O
inactive: dose: 60.0 mg/kg/injection, schedule: Q01DX005 (ip), vehicle: saline 101 % of control | dose: 120.0 mg/kg/injection, schedule: Q01DX005 (ip), vehicle: saline 98 % of control | dose: 240.0 mg/kg/injection, schedule: Q01DX005 (ip), vehicle: saline 98 % of control

CCCCC1NNC(CCCC)NN1 (stereo not given)
inactive: [21] 104 % of control | [22] 104 % of control

CN1c2ccc(C3N(C(=O)C(F)(F)F)C=CN3C(=O)C(F)(F)F)cc2Sc2cc(C3N(C(=O)C(F)(F)F)C=CN3C(=O)C(F)(F)F)ccc21
inactive: [18] 91 % of control | [19] 89 % of control | [20] 91 % of control

CCC[CH2][Sn]([N]=C=S)([N]=C=S)[N]=C=S.O=P(c1ccccc1)(c1ccccc1)c1ccccc1.O=P(c1ccccc1)(c1ccccc1)c1ccccc1
inactive: [11] 98 % of control | [23] 100 % of control | [24] 99 % of control

C/C(=N\Nc1ccccn1)c1ccccn1
inactive: dose: 6.25 mg/kg/injection, schedule: Q01DX005 (ip), vehicle: saline with Tween-80 104 % of control | dose: 12.5 mg/kg/injection, schedule: Q01DX005 (ip), vehicle: saline with Tween-80 100 % of control | dose: 25.0 mg/kg/injection, schedule: Q01DX005 (ip), vehicle: saline with Tween-80 101 % of control

O=C1CC(C2CCCCC2)C(=O)c2cc3cccnc3c(O)c21 (stereo not given)
inactive: [12] 101 % of control | [13] 99 % of control | [14] 93 % of control

CCN(CC)C(C)COC(=O)c1ccc(N)cc1 (stereo not given)
inactive: [1] 86 % of control | [8] 95 % of control | [9] 91 % of control | [5] 100 % of control | [10] 91 % of control

CCCCCCCCCCCCCCCCOc1ccc(S(=O)(=O)N/N=c2/sc3ccc(S(=O)(=O)O)cc3n2C)cc1C(=O)O
inactive: [2] 99 % of control | [5] 100 % of control | [4] 102 % of control | [6] 86 % of control

C=C(C)[C@H]1C[C@]2(C)[C@@H](C)CC(=O)C[C@H]2[C@@H](OC(=O)/C(C)=C\C)[C@@H]1OC(=O)/C(C)=C/C
inactive: dose: 130.0 mg/kg/injection, schedule: Q01DX001 (ip), vehicle: Klucel (hydroxypropylcellulose) (HPC) 100 % of control | dose: 260.0 mg/kg/injection, schedule: Q01DX001 (ip), vehicle: Klucel (hydroxypropylcellulose) (HPC) 99 % of control | dose: 520.0 mg/kg/injection, schedule: Q01DX001 (ip), vehicle: Klucel (hydroxypropylcellulose) (HPC) 100 % of control
